Source: patent publication US11136562B2, “Conditionally active heterodimeric polypeptides and methods of use thereof” (The Regents of the University of California, priority 2016, dated 2021)

Experiments:
[1] = tested on: primary human CD8+ T cells expressing a CD19 specific ER-beta/CoRNR ON-switch CAR; assay: CD69 upregulation by primary human CD8+ T cells expressing ER-beta/CoRNR ON-switch CAR co-cultured with K562 target cells; format: cell-based; details: 24 hours co-culture with K562 cells expressing CD19, 4-hydroxytamoxifen 0-10 μM
From the text: A human estrogen receptor beta nuclear receptor-peptide system was expressed in primary human T cells and found to capable of modulating ON-switch CAR activity. A CD19 specific ON-switch CAR was constructed to include human estrogen receptor beta ligand binding domain and co-repressor peptide (CoRNR). A schematic representation of the general construct within the T cell membrane, and the associated CD19 antigen expressed on the surface of the target cell, is provided in FIG. 17.
Specifically, CD69 upregulation by primary human CD8+ T cells expressing a CD19 specific ON-switch CAR constructed to include human estrogen receptor beta ligand binding domain (ER-beta) and co-repressor peptide (CoRNR) was measured after 24 hours of co-culturing with K562 target cells expressing CD19 or mesothelin, an irrelevant antigen (“meso”), in the presence or absence of a small-molecule dimerizer (4-hydroxytamoxifen or rapalog “rapa”).

[2] = tested on: CD19-expressing K562 target cells; assay: Target cell killing by primary human CD8+ T cells expressing the CD19 specific ER-beta/CoRNR ON-switch CAR; format: cell-based; details: 22 hours co-culture; percent of CD19-expressing K562 target cells remaining; various drug concentrations
Method: Cell killing by primary human CD8+ T cells expressing the CD19 specific ER-beta/CoRNR ON-switch CAR was also assessed. Specifically, the percent of CD19-expressing K562 target cells remaining after 22 hours of co-culture with primary human CD8+ T cells expressing the CD19 specific ER-beta/CoRNR ON-switch CAR (ER-CAR) in the presence of various concentrations of drug (4-hydroxytamoxifen (4HT) or rapalog) was measured (FIG. 52). Cells expressing a CD19 specific single-chain second generation CAR (“2nd gen CAR”) and cells expressing a CD19 specific rapalog on-switch CAR, with administered rapalog dimerizer, were used as positive controls. Negative controls included cells expressing ER-CAR T cells in absence of 4HT (ethanol vehicle only, “ER-CAR+EtOH”) and cells expressing only part 2 of the ER-CAR on-switch construct, i.e., without part 1, in the presence of 4HT.

ER CAR+ Jurkat cells = assay: CD69 upregulation by ER CAR+ Jurkat cells (bCW502 and bCW505) co-cultured with K562 target cells; format: cell-based, human
Method: A Jurkat cell line expressing Green Fluorescent Protein upon NFAT activation was used. The cell line was maintained in RPMI-1640 medium supplemented with 10% FBS and glutamine. K562 target cells (CD19+/−) were cultured in DMEM supplemented with 10% FBS. Jurkat cells infected with lentivirus with the CAR constructs were co-cultured with K562 target cells that expressed the target antigen (CD19) or an irrelevant antigen (mesothelin). 4-Hydroxytamoxifen (Sigma-Aldrich #H7904) was dissolved in DMSO and added to samples to a final concentration of 0-10 μM. The Rapalog A/C Heterodimerizer (Clontech Laboratories #635055) was dissolved in ethanol and added to a final concentration of 500 nM. The cells were cultured for 24 hours, stained for CD69 expression, and analyzed on a flow cytomter.
The data are depicted in FIG. 16A and FIG. 16B. FIG. 16A. CD69 upregulation by Jurkat cells expressing ER CAR+ (bCW502 and bCW505) after 24 hours of co-culturing with K562 target cells expressing CD19 or mesothelin, an irrelevant antigen (“meso”), in the presence or absence of a small-molecule dimerizer (4-hydroxytamoxifen or rapalog AP21967). […] Rapamycin CAR and dead rapamycin CAR (with a mutation in ITAM that abolishes signalling) were tested as positive and negative controls, respectively. FIG. 16B. […]

[3] = tested on: primary CD8+ T cells expressing a split ON-switch CAR (human Vitamin D receptor ligand binding domain / SRC2-3 coactivator peptide); assay: T cell activation of primary CD8+ T cells expressing a split ON-switch CAR with human Vitamin D receptor LBD and SRC2-3 coactivator peptide; format: cell-based; details: in the presence of the dimerizer

EC50 (ER CAR+ Jurkat cells; 24 hours co-culture with K562 cells expressing CD19, flow cytometry, read-out: EC50 of CD69 expression induction)	Molecule	T cell activation (CD69 upregulation) of primary human CD8+ T cells [1]	T cell activation (CD69 upregulation) of primary human CD8+ T cells ([1]; listed as 4-hyroxytamoxifen)	target cell killing (cytotoxic activity) [2]	CD69 expression in ER CAR+ Jurkat cells (ER CAR+ Jurkat cells; 24 hours co-culture, only in the presence of K562 cells expressing CD19, not the irrelevant antigen mesothelin)	T cell activation [3]
~100 nM	4-Hydroxytamoxifen	increasing numbers of CD69 positive primary human CD8+ T cells	increased T cell activation	inducible target cell killing	strongly induced	–
–	C=C1/C(=C\C=C2/CCC[C@]3(C)[C@@H]([C@H](C)/C=C/[C@@H](O)C4CC4)CC[C@@H]23)C[C@@H](O)C[C@@H]1O [calcipotriol]	–	–	–	–	increased activation
